Tests used:
[1] = test system: heart muscle cells; conditions: by activating Akt; cited from earlier work
[2] = test system: heart muscle cells of rat newborns; assay: Inhibition of serum-removal-induced apoptosis of heart muscle cells, present detection method (serum re-added, about 17 h) with WST-8; type: cell-based; conditions: 1000 U/ml hLIF
Method: (§1) The heart muscle cells obtained by the method of the invention are adjusted to a cell density of 3×10^4 cells/well (96-wells plate) and cultured in serum-free medium such as Medium 199 in a CO2 incubator set at 5% CO2, 37° C. for 4 days, thus inducing apoptosis to reduce the survival rate of the heart muscle cells to 50% or less.
(§2) Serum such as FCS is added at a final concentration of 10% to the culture, which is then cultured for about 17 hours and measured for its dehydrogenase activity (reduction activity) with MTT or WST-8 as the coloration substrate, to determine the number of viable cells.
(§3) Using the heart muscle cells of rat newborns obtained by the present method of preparing heart muscle cells as described in Example 1, their apoptosis was induced by removing serum from the culture, and the inhibitory action of recombinant human leukemia inhibitory factor (hLIF, produced by Peprotech) on the apoptosis was detected by the conventional method with MTT as the coloration substrate and by the present method of detecting apoptosis with WST-8 or MTT as the coloration substrate, and the sensitivity of the two methods was compared.
First, the muscle cells obtained in the method of preparing heart muscle cells according to the invention were suspended at a density of 3×10^5 cells/ml in Medium 199 containing 10% fetal calf serum, put onto a 96-wells plate in a volume of 0.1 ml/well, and then cultured for 1 day in a CO2 incubator set at 5% CO2, 37° C. The plate was stirred with a micromixer (Taiyo Kagaku Kogyo Co., Ltd.) and the medium was exchanged 3 times with serum-free Medium 199, followed by adding 0 to 1000 U/ml hLIF. The culture was incubated for additional 4 days to induce apoptosis. In the conventional method, the number of viable cells in the culture was measured directly with MTT as the coloration substrate. In the method of the invention, on the other hand, fetal calf serum was added thereto at a concentration of 10%, and the cells were further cultured for about 17 hours in a CO2 incubator set at 5% CO2, 37° C., and the number of viable cells was determined by using WST-8 or MTT as the coloration substrate. […]
First, the heart muscle cells obtained in the method described in Example 1 were suspended at a density of 3×10^5 cells/ml in Medium 199 containing 10% fetal bovine serum, and put in a volume of 0.1 ml/well onto each well of 2nd to 11th rows on each of three 96-wells plates. […] The cells were cultured for 4 days to induce apoptosis, and fetal calf serum was added at a concentration of 10%, and the cells were cultured for additional 17 hours in a CO2 incubator set at 5% CO2, 37° C., and then the number of viable cells was counted with WST-8 as the coloration substrate.

[3] = test system: heart muscle cells of rat newborns; assay: Inhibition of serum-removal-induced apoptosis of heart muscle cells, conventional MTT reduction method (no serum re-addition); type: cell-based; conditions: 1000 U/ml hLIF, 4 days serum-free, MTT as coloration substrate
Text: as §3
First, the muscle cells obtained in the method of preparing heart muscle cells according to the invention were suspended at a density of 3×10^5 cells/ml in Medium 199 containing 10% fetal calf serum, put onto a 96-wells plate in a volume of 0.1 ml/well, and then cultured for 1 day in a CO2 incubator set at 5% CO2, 37° C. […] In the conventional method, the number of viable cells in the culture was measured directly with MTT as the coloration substrate. In the method of the invention, on the other hand, fetal calf serum was added thereto at a concentration of 10%, and the cells were further cultured for about 17 hours in a CO2 incubator set at 5% CO2, 37° C., and the number of viable cells was determined by using WST-8 or MTT as the coloration substrate.

[4] = test system: heart muscle cells of rat newborns; assay: Inhibition of serum-removal-induced apoptosis of heart muscle cells, present detection method (serum re-added, about 17 h) with MTT; type: cell-based; conditions: 1000 U/ml hLIF, 4 days serum-free, then 10% serum about 17 h, MTT as coloration substrate
Method: as §1, §2
as §3, with “compared. […]” for “compared.”

Substance | effect on apoptosis of heart muscle cells [1] | increase in average absorbance relative to control group ([2]; 4 days serum-free, then 10% serum about 17 h, WST-8 as coloration substrate) | average absorbance (number of viable cells) ([2]; plate 1, WST-8, control 0.22±0.039) | average absorbance (number of viable cells) ([2]; plate 2, WST-8, control 0.15±0.028) | average absorbance (number of viable cells) ([2]; plate 3, WST-8, control 0.13±0.020) | increase in the average absorbance as compared with the control group [3] | increase in absorbance relative to control group [4]
hIGF-1: recombinant human IGF-1 (hIGF-1, produced by Peprotech) | inhibit apoptosis of heart muscle cells | – | – | – | – | – | –
hLIF: recombinant human leukemia inhibitory factor (hLIF, produced by Peprotech) | – | ≥ 0.3 | 0.54±0.055 | 0.45±0.035 | 0.43±0.059 | ≤ 0.03 | ~0.1

From patent US20080160553A1, “Method of preparing heart muscle cells and method of searching for remedy for heart diseases” (Takeda Pharmaceutical Company Limited, priority 2000, published 2008)
